Measured values reported in the supplement of paper PMC10307832.

Legend:
Assay in all cases: relative viability (nuclei count vs DMSO), 5 days (fraction); higher = more cells survive
Avagacestat + Luminespib = compound: NC(=O)[C@@H](CCC(F)(F)F)N(Cc1ccc(-c2ncon2)cc1F)S(=O)(=O)c1ccc(Cl)cc1 [Avagacestat] + CCNC(=O)c1noc(-c2cc(C(C)C)c(O)cc2O)c1-c1ccc(CN2CCOCC2)cc1 [Luminespib] (partner 0.01 µM)
Method in brief: (§1)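 For relative viability, nuclei counts in treated wells were divided by those in vehicle wells. Lung cancer cell lines had been pin-tool dosed in 1536-well plates the day after seeding and cultured for 5 days, then fixed and stained in one step (final 0.05% Triton X-100, 1% formaldehyde, 1 ug/ml Hoechst) and imaged at 4×. Doses were one drug alone or a fixed anchor-drug dose plus five library-drug doses (not always all listed) in √10 steps, and values are duplicate-plate medians.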

Avagacestat + Alpelisib = compound: NC(=O)[C@@H](CCC(F)(F)F)N(Cc1ccc(-c2ncon2)cc1F)S(=O)(=O)c1ccc(Cl)cc1 [Avagacestat] + Cc1nc(NC(=O)N2CCC[C@H]2C(N)=O)sc1-c1ccnc(C(C)(C)C(F)(F)F)c1 [Alpelisib] (partner 2 µM)
Method in brief: as §1

Avagacestat + Dasatinib = compound: NC(=O)[C@@H](CCC(F)(F)F)N(Cc1ccc(-c2ncon2)cc1F)S(=O)(=O)c1ccc(Cl)cc1 [Avagacestat] + Cc1nc(Nc2ncc(C(=O)Nc3c(C)cccc3Cl)s2)cc(N2CCN(CCO)CC2)n1 [Dasatinib] (partner 0.075 µM)
Method in brief: as §1

Avagacestat + Tozasertib = compound: NC(=O)[C@@H](CCC(F)(F)F)N(Cc1ccc(-c2ncon2)cc1F)S(=O)(=O)c1ccc(Cl)cc1 [Avagacestat] + Cc1cc(Nc2cc(N3CCN(C)CC3)nc(Sc3ccc(NC(=O)C4CC4)cc3)n2)n[nH]1 [Tozasertib] (partner 0.1 µM)
Method in brief: as §1

Row | Cell Line | relative viability (Avagacestat + Luminespib; first compound 0.08 µM) | relative viability (Avagacestat + Luminespib; first compound 0.253 µM) | relative viability (Avagacestat + Luminespib; first compound 0.8 µM) | relative viability (Avagacestat + Luminespib; first compound 2.53 µM) | relative viability (Avagacestat + Luminespib; first compound 8 µM) | relative viability (Avagacestat + Alpelisib; first compound 0.08 µM) | relative viability (Avagacestat + Alpelisib; first compound 0.253 µM) | relative viability (Avagacestat + Alpelisib; first compound 0.8 µM) | relative viability (Avagacestat + Alpelisib; first compound 2.53 µM) | relative viability (Avagacestat + Alpelisib; first compound 8 µM) | relative viability (Avagacestat + Dasatinib; first compound 0.08 µM) | relative viability (Avagacestat + Dasatinib; first compound 0.253 µM) | relative viability (Avagacestat + Dasatinib; first compound 0.8 µM) | relative viability (Avagacestat + Dasatinib; first compound 2.53 µM) | relative viability (Avagacestat + Dasatinib; first compound 8 µM) | relative viability (Avagacestat + Tozasertib; first compound 0.08 µM) | relative viability (Avagacestat + Tozasertib; first compound 0.253 µM) | relative viability (Avagacestat + Tozasertib; first compound 0.8 µM) | relative viability (Avagacestat + Tozasertib; first compound 2.53 µM) | relative viability (Avagacestat + Tozasertib; first compound 8 µM)
1 | NCI-H1355 | 0.769 | 0.717 | 0.797 | 0.635 | 0.641 | 0.924 | 0.994 | 0.74 | 0.759 | 0.787 | 0.688 | 0.754 | 0.687 | 0.557 | 0.62 | 0.523 | 0.534 | 0.593 | 0.454 | 0.392
2 | NCI-H1395 | 0.806 | 0.836 | 0.567 | 0.799 | 0.662 | 0.938 | 0.996 | 0.879 | 1.05 | 0.943 | 0.412 | 0.405 | 0.416 | 0.372 | 0.442 | 0.826 | 0.758 | 0.752 | 0.64 | 0.715
3 | NCI-H1437 | 1.4 | 1.28 | 1.12 | 1.17 | 1.05 | 1.22 | 1.25 | 0.921 | 0.894 | 0.849 | 0.283 | 0.278 | 0.346 | 0.291 | 0.211 | 0.416 | 0.457 | 0.41 | 0.377 | 0.307
4 | NCI-H1651 | 1.09 | 0.931 | 0.726 | 0.719 | 0.852 | 1.05 | 1.3 | 1.15 | 0.978 | 0.909 | 0.477 | 0.426 | 0.454 | 0.38 | 0.342 | 0.955 | 0.862 | 0.719 | 0.609 | 0.585
5 | NCI-H1666 | 1.29 | 1.21 | 1.12 | 1.07 | 1.13 | 1.26 | 0.982 | 1.32 | 1.03 | 1.1 | 0.819 | 0.739 | 0.876 | 0.783 | 0.653 | 0.726 | 0.602 | 0.706 | 0.582 | 0.586
6 | NCI-H1734 | 0.219 | 0.179 | 0.212 | 0.202 | 0.175 | 0.896 | 0.641 | 0.737 | 0.674 | 0.67 | 0.545 | 0.542 | 0.48 | 0.471 | 0.432 | 0.235 | 0.301 | 0.264 | 0.236 | 0.24
7 | NCI-H1755 | 0.72 | 0.55 | 0.418 | 0.697 | 0.386 | 1.24 | 1.1 | 1.05 | 0.939 | 0.777 | 0.445 | 0.357 | 0.234 | 0.389 | 0.334 | 0.641 | 0.562 | 0.575 | 0.624 | 0.54
8 | NCI-H1793 | 0.145 | 0.176 | 0.157 | 0.198 | 0.172 | 0.967 | 0.777 | 0.822 | 0.769 | 0.672 | 0.445 | 0.383 | 0.319 | 0.282 | 0.337 | 0.307 | 0.329 | 0.655 | 0.239 | 0.3
9 | NCI-H1915 | 1.07 | 1.18 | 1.01 | 0.745 | 0.669 | 1.03 | 1.12 | 1.04 | 1.03 | 1.02 | 0.305 | 0.308 | 0.279 | 0.313 | 0.341 | 0.51 | 0.48 | 0.464 | 0.393 | 0.398
10 | NCI-H1944 | 0.731 | 0.941 | 0.591 | 0.515 | 0.599 | 0.874 | 0.857 | 0.844 | 0.667 | 0.758 | 0.199 | 0.201 | 0.227 | 0.202 | 0.222 | 0.256 | 0.314 | 0.232 | 0.222 | 0.257
11 | NCI-H1975 | 0.216 | 0.164 | 0.207 | 0.182 | 0.154 | 0.686 | 0.62 | 0.719 | 0.585 | 0.665 | 0.395 | 0.478 | 0.386 | 0.402 | 0.384 | 1.01 | 0.945 | 0.928 | 0.603 | 0.367
12 | NCI-H1993 | 0.93 | 0.91 | 1.04 | 0.752 | 0.842 | 0.756 | 0.691 | 0.693 | 0.752 | 0.727 | 0.53 | 0.549 | 0.586 | 0.491 | 0.538 | 0.604 | 0.594 | 0.529 | 0.541 | 0.539
13 | NCI-H2009 | 1.13 | 1.03 | 1.2 | 1.04 | 0.901 | 1.28 | 1.29 | 1.16 | 1.18 | 1.08 | 0.323 | 0.274 | 0.282 | 0.257 | 0.229 | 0.879 | 0.836 | 0.812 | 0.61 | 0.532
14 | NCI-H2023 | 1.06 | 0.862 | 0.952 | 0.514 | 0.762 | 0.659 | 0.781 | 0.536 | 0.562 | 0.536 | 0.564 | 0.643 | 0.563 | 0.419 | 0.422 | 0.513 | 0.479 | 0.396 | 0.289 | 0.254
15 | NCI-H2085 | 0.438 | 0.481 | 0.729 | 0.414 | 0.472 | 1.15 | 1.07 | 1.08 | 1 | 1.05 | 0.201 | 0.202 | 0.229 | 0.222 | 0.252 | 0.849 | 0.894 | 0.842 | 0.803 | 0.829
16 | NCI-H2087 | 0.161 | 0.173 | 0.276 | 0.264 | 0.143 | 1.12 | 1.26 | 1.28 | 1.18 | 1.03 | 0.893 | 1.18 | 0.994 | 0.916 | 0.686 | 0.218 | 0.286 | 0.277 | 0.248 | 0.237
